Laboratory results published in publication PMC8525843 (Investigative Ophthalmology & Visual Science, 2021).

Tests used:
[1] = test system: hypertonic saline-induced ocular hypertensive NZW rabbits; assay: IOP-lowering effect in hypertonic saline-induced ocular hypertensive NZW rabbits; format: in vivo, rabbit; conditions: 0.02%; at 1.5 hours; vs saline
[2] = test system: rabbit eyes; conditions: after administration; cited from earlier work
[3] = test system: patients; conditions: clinical data; cited from earlier work

## Cc1ccc(C(=O)OCc2ccc([C@@H](CN)C(=O)Nc3ccc4cnccc4c3)cc2)c(C)c1 [AR-13324, netarsudil]
[1]
  Emax of IOP reduction: 12.1 ± 0.9 mm Hg

## O=S(=O)(c1cccc2c(Cl)cccc12)N1CCCNCC1 [ML-9]
[2]
  IOP of rabbit eyes: decreased in a dose-dependent manner

## C[C@H]1CNCCCN1S(=O)(=O)c1cccc2cncc(F)c12 [ripasudil, Ripasudil]
[3]
  time for conjunctival hyperemia to resolve spontaneously: ≤ 4 h
